From BigSolDB 2.1

CCOc1cc(C=O)ccc1O
solubility (mole fraction)
Conditions	273.15 K	278.15 K	283.15 K	288.15 K	293.15 K	298.15 K	303.15 K	308.15 K	313.15 K
in acetone	0.199	0.216	0.237	0.271	0.3	0.33	0.369	0.416	0.459
in ethanol	0.0564	0.0721	0.0911	0.109	0.141	0.183	0.224	0.283	0.34
in isopropanol	0.0336	0.0433	0.0552	0.072	0.0957	0.124	0.166	0.221	0.294
in methanol	0.0867	0.114	0.147	0.181	0.214	0.257	0.307	0.358	0.418
